One experiment addresses T1, IRAK4 kinase (Homo sapiens, UniProt Q9NWZ3).
T1 construct: purchased Carna 09-145
T1 sequence (Q9NWZ3 1-460): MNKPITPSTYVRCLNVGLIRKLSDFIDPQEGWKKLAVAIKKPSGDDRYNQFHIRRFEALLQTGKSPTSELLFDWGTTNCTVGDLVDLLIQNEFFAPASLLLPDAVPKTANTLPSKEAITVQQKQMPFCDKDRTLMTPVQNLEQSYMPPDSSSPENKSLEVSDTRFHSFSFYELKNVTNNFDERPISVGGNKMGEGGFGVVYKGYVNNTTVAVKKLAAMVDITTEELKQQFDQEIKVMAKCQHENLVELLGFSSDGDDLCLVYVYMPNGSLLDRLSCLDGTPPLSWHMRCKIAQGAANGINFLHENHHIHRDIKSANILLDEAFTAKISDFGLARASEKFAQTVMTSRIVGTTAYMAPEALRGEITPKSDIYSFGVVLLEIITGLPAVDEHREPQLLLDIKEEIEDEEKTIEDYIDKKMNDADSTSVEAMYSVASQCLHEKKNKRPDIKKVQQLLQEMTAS
The experiment can be described thus: Inhibition of IRAK4 kinase activity, fluorescence microfluidic mobility assay. The format is biochemical. The settings on record: IRAK4 6 nM, ATP 10 µM, substrate peptide FAM-P8 3 µM. As to the method:
Based on the experimental method of fluorescence microfluidic mobility assay, the IC50 value of competitive binding of IRAK4 kinase to ATP by the compound was determined. The initial detection concentration of the compound was 10 µM, which was 4-fold serially diluted to […] and assayed in duplicate. In this case, commercially available staurosporine was the standard control for the assay.
• 1) IRAK4 kinase was dissolved in kinase buffer (50 mM HEPES pH 7.5, 10 mM MgCl2, 2 mM DTT, and 0.01% Brij-35) at a final concentration of 6 nM. • 2) The substrate peptide FAM-P8 and ATP were dissolved in the above kinase buffer, and the final concentrations of the substrate peptide FAM-P8 and ATP for IRAK4 were 3 µM and 10 µM, respectively. • 3) Dilution of compound: the compound was first diluted to 50 µM, and then 4-fold serially diluted with DMSO. […] After incubation at 28°C for 1 hour, 25 µL of stop solution (100 mM HEPES pH 7.5, 50 mM EDTA, 0.2% Coating Reagent #3, and 0.015% Brij-35) was added to each well to terminate the reaction. • 5) Data reading: CaliperEZ Reader II instrument was used to read the conversion rate data. […]

Experiment [1] has as its target T2, IRAK4 protein in THP-1 cells (Homo sapiens, UniProt Q9NWZ3).
T2 construct: endogenous in cells; host or cells: THP-1
T2 sequence (Q9NWZ3 1-460): T1 sequence (Q9NWZ3 1-460)
The experiment can be described thus: IRAK4 protein degradation in THP-1 cells by Western Blot. The format is cell-based. The settings on record: 24 hours after administration. On the procedure:
2.2.2.1 Based on the experimental method of immunoblot, i.e., Western Blot, THP-1 cell samples processed by gel electrophoresis were stained with specific antibodies, and the degrading activity of the compound on the IRAK4 protein in THP-1 cells was determined by analyzing the position and depth of staining. The detection concentrations of the compound were 0 µM, 0.3 µM, 1 µM, and 3 µM, and the compound was used to treat the cells for 8 hours, 16 hours, 24 hours, and 48 hours. In this case, glyceraldehyde-3-phosphate dehydrogenase (GAPDH) was the internal reference protein for the assay.
• Running buffer: 50 mL of MOPS SDS Running Buffer (20X) and 50 mL of 20× TBS Tween-20 buffer were diluted to 1L with deionized water as running buffer; • 5% skim milk (w/v): 5% skim milk was prepared by diluting 2.5 g of skim milk with 50 mL of 1× TBS Tween-20 buffer; • 5% BSA (w/v): 5% BSA was prepared by diluting 2.5 g of BSA with 50 mL of 1× TBS Tween-20 buffer; • Anti-IRAK4 antibody was diluted at 1:1000 with 5% BSA into a primary antibody working solution; • Goat Anti-Rabbit IgG H&L (HRP) was diluted at 1:2000 with 5% BSA into a secondary antibody working solution; • Goat Anti-Mouse IgG H&L (HRP) was diluted at 1:2000 with 5% BSA into a secondary antibody working solution. […]
A general note: In western blotting, separated proteins are transferred to a membrane and probed.

Molecules are shown by their SMILES.

This is an account of results in patent publication EP4796536A1, “CRYSTAL FORMS OF COMPOUND HAVING FUSED FIVE- AND SIX-MEMBERED RINGS, PREPARATION METHOD THEREFOR, AND USE THEREOF” (Hangzhou Polymed Biopharmaceuticals, Inc., priority 2023, dated 2025).

What is called IC50 is the concentration at which inhibition is half-maximal. The low end stands for higher potency, the high end for lower potency. By DC50 is commonly meant the concentration at which degradation of the target reaches its halfway point. Higher therefore signals degradation only at high concentration.

`COc1cc2nn(C3CC4(CCN(C(=O)C5CCN(c6ccc7c(c6)C(=O)N(C6CCC(=O)NC6=O)C7=O)CC5)CC4)C3)cc2cc1NC(=O)c1cccc(C(F)(F)F)n1` (centres unmarked) [X] returned an IC50 against IRAK4 kinase of 0.026 µM. This molecule returned a DC50 in experiment [1] of 0.00402 µM.
